Tests used:
[1] = Stability of the four compounds in rat plasma QC samples (freeze-thaw, storage at −80 °C, autosampler); format: physicochemical; settings: for Stability, Autosampler for 24 h, Accuracy: processed rat plasma, auto-sampler 4 °C for 24 h; for Stability, Freeze-thaw cycles, Accuracy / Stability, At −80 °C for a Month, Accuracy: rat plasma; for Stability, Freeze-thaw cycles, Accuracy: three freeze-thaw cycles −80 °C to 20 °C
Experimental: Stability of the four analytes during the sample storing and processing procedures was fully evaluated by analysis of QC samples.
Three QC samples (five samples for each) were tested for pre-treatment, post-treatment, three freeze-thaw cycles and long-term stabilities. Pre-treatment stability was assessed by exposing QC samples at room temperature for 4 h. Post-treatment stability was evaluated by placing QC samples in the auto-sampler at 4 °C for 24 h. For freeze–thaw cycle stability assessment, QC samples were repeatedly frozen and thawed for three cycles from −80 °C to 20 °C. […]

[2] = Pharmacokinetics of four compounds in plasma after oral administration of GSBXD and its plus-minus prescriptions in normal rats (LC-MS/MS); format: in vivo; settings: Wistar, rat
Experimental: Plasma samples (200 μL) and IS solution (50 μL, 1215 ng/mL for diphenhydramine, 476 ng/mL for chloromycetin) were added in an Eppendorf tube, and this mixture was extracted with methanol (550 μL) by shaking on a vortex-mixer for 2 min, and centrifuged for 10 min at 13,000 rpm. The contents were evaporated to dryness on a rotary evaporator at 37 °C. The residue was reconstituted in methanol (100 μL) and centrifuged (13,000 rpm for 10 min). The supernatant was transferred to an auto sample vail and an aliquot of 5 μL was injected onto the UPLC-MS/MS system for analysis.
The developed and validated method was applied to the pharmacokinetic evaluation of the four compounds after oral administration of different fractions to normal rats (Figure 3).
Raw materials of Glycyrrhiza uralensis Fisch (Gancao), Paeonia lactiflora Pall (Baishao), Pinellia ternata Breit (Banxia) in a weight ratio of 10:15:9 (50, 75 and 45 g) were crushed into small pieces. The mixture was refluxed with 1.7 L water for 1 h and with 1.36 L water for 1 h. The filtrates were combined and concentrated below 70 °C to obtain a certain volume at the ratio of 1.5:1 (w/w, weight of all constituting herbs and the extract filtrates) under vacuum. Powder of Euphorbia kansui T. N. Liou ex T. P. Wang. […] The same method was used to prepare GSBXD minus Gancao (GSBXD-GC); GSBXD minus Gansui (GSBXD-GS); GSBXD minus Gancao and Gansui (GSBXD-GG); the extract of Gancao and Gansui (GG) and the extract of Gancao (GC). The extracts contained 19.21, 18.73, 46.53, 15.82 μg/mL of compounds 1–4 in GSBXD; 0, 0, 51.03, 17.88 μg/mL of compounds 1–4 in GSBXD-GC; 19.21, 18.73, 46.53, 15.82 μg/mL of compounds 1–4 in GSBXD-GS; 0, 0, 51.03, 17.88 μg/mL of compounds 1–4 in GSBXD-GG; 20.03, 17.09, 0, 0 μg/mL of compounds 1–4 in GG, 20.03, 17.09, 0, 0 μg/mL of compounds 1–4 in GC.
For pharmacokinetic studies, Wistar rats were divided into ten groups (n = 6 per group). Rats in the normal and model GSBXD groups were administered GSBXD at a dose of 15 mL/kg intragastrically. In the normal and model GSBXD-GC groups, GSBXD-GC (12 mL/kg) was administrated. In the normal and model GSBXD-GS groups, GSBXD-GS (15 mL/kg) was administrated. In the normal and model GSBXD-GC-GS groups, GSBXD-GC-GS (12 mL/kg) was administrated. In the normal and model GG groups, GG (7.5 mL/kg) was administrated. Blood samples were collected at specific time points before (0 min) and after oral administration (5, 10, 20, 40, 60, 120, 240, 360, 480, 600 and 1440 min). A total of 720 blood samples were collected. All the blood samples were immediately centrifuged at 2500 rpm for 10 min to obtain plasma, which was labeled and frozen at −80 °C until analysis. Blank plasma was obtained from the rats without oral administration and was used to investigate the assay development and validation.
To determine the pharmacokinetic parameters of compounds 1–4 in different groups, concentration–time data were analyzed by DAS 3.2 software (Mathematical Pharmacology Professional Committee of China, Shanghai, China, 2011). Data were expressed as the mean […] standard deviation (S.D.) with triplicate measurements. The identification of significances between different groups was carried out with Student’s t-test. A P value < 0.05 was considered statistically significant.

[3] = high QC concentration (1.23 × 10^3, 1.11 × 10^3, 1.14 × 10^3, 1.42 × 10^3 ng/mL for 1–4)
[4] = low QC concentration (1.91 × 10, 4.32, 1.78 × 10, 1.11 × 10 ng/mL for 1–4)
[5] = middle QC concentration (3.09 × 10^2, 1.38 × 10^2, 1.43 × 10^2, 1.77 × 10^2 ng/mL for 1–4)
[6] = 7.5 mL/kg, group GG (extract of Gancao and Gansui), 7.5 mL/kg oral, normal rats, n = 6, mean ± S.D.
[7] = 15 mL/kg, group GSBXD, 15 mL/kg intragastrically, normal rats, n = 6, mean ± S.D.
[8] = 15 mL/kg, group GSBXD-GS (GSBXD minus Gansui), 15 mL/kg oral, normal rats, n = 6, mean ± S.D.
[9] = group GC (extract of Gancao), oral, normal rats, n = 6, mean ± S.D.
[10] = 12 mL/kg, group GSBXD-GC (GSBXD minus Gancao), 12 mL/kg oral, normal rats, n = 6, mean ± S.D.
[11] = 12 mL/kg, group GSBXD-GG (GSBXD minus Gancao and Gansui), 12 mL/kg oral, normal rats, n = 6, mean ± S.D.

Stability, Autosampler for 24 h, Accuracy [1, 3] [%] | Stability, Autosampler for 24 h, Accuracy [1, 4] [%] | Stability, Autosampler for 24 h, Accuracy [1, 5] [%] | Stability, Freeze-thaw cycles, Accuracy [1, 3] [%] | Stability, Freeze-thaw cycles, Accuracy [1, 4] [%] | Stability, Freeze-thaw cycles, Accuracy [1, 5] [%] | Stability, At −80 °C for a Month, Accuracy [1, 3] [%] | Stability, At −80 °C for a Month, Accuracy [1, 4] [%] | Stability, At −80 °C for a Month, Accuracy [1, 5] [%] | AUC(0-t) [2, 6] [ng·h/mL] | Cmax [2, 6] [ng/mL] | Tmax [2, 6] [h] | AUC(0-t) [2, 7] [ng·h/mL] | Cmax [2, 7] [ng/mL] | Tmax [2, 7] [h] | half-life [2, 7] [h] | AUC(0-t) [2, 8] [ng·h/mL] | Cmax [2, 8] [ng/mL] | Tmax [2, 8] [h] | half-life [2, 8] [h] | Compound | also measured
87.36 | 93.94 | 92.23 | 94.33 | 98.83 | 91.02 | 98.18 | 89.99 | 91.37 | 788 ± 110 | 364 ± 46.2 | 0.64 ± 0.34 | 2630 ± 532 | 503 ± 199 | 0.33 | 5.93 ± 2.67 | 1280 ± 393 | 214 ± 55.4 | 1.67 ± 0.12 | 11.6 ± 5.74 | CC1(C)[C@@H](O[C@H]2O[C@H](C(=O)O)[C@@H](O)[C@H](O)[C@H]2O[C@@H]2O[C@H](C(=O)O)[C@@H](O)[C@H](O)[C@H]2O)CC[C@]2(C)[C@H]3C(=O)C=C4[C@@H]5C[C@@](C)(C(=O)O)CC[C@]5(C)CC[C@@]4(C)[C@]3(C)CC[C@@H]12 [Compound 1, glycyrrhizinic acid] | half-life [2, 6]: 9.29 ± 4.7 h; AUC(0-t) [2, 9]: 486 ± 136 ng·h/mL; Cmax [2, 9]: 147 ± 19.9 ng/mL; Tmax [2, 9]: 0.36 ± 0.16 h; half-life [2, 9]: 0.79 ± 0.39 h
97.11 | 88.92 | 97.49 | 95.35 | – | 89.99 | 96.71 | 91.03 | 99.99 | 788 ± 110 | 200 ± 42.4 | 0.32 ± 0.27 | 794 ± 142 | 193 ± 84.5 | 0.39 ± 0.14 | 7.04 ± 2.99 | 421 ± 222 | 98.9 ± 26.8 | 0.17 ± 0.11 | 6.84 ± 3.11 | O=C1C[C@@H](c2ccc(O[C@@H]3O[C@H](CO)[C@@H](O)[C@H](O)[C@H]3O)cc2)Oc2cc(O)ccc21 [Compound 2, liquiritin] | half-life [2, 6]: 12.9 ± 4.76 h; AUC(0-t) [2, 9]: 797 ± 174 ng·h/mL; Cmax [2, 9]: 139 ± 33.5 ng/mL; Tmax [2, 9]: 0.5 ± 0.18 h; half-life [2, 9]: 5.26 ± 1.93 h
99.91 | 97.15 | 91.22 | 98.33 | 93.49 | 102.34 | 88.48 | 101.5 | 79.13 | – | – | – | 1110 ± 346 | 255 ± 98 | 0.33 ± 0.18 | 8.06 ± 1.44 | 514 ± 271 | 142 ± 39.8 | 0.28 ± 0.14 | 9.07 ± 0.87 | CC12CC(O)C3CC1(OC1OC(CO)C(O)C(O)C1O)C3(COC(=O)c1ccccc1)C(=O)O2 (stereo not drawn) [Compound 4, albiflorin] | AUC(0-t) [2, 10]: 619 ± 130 ng·h/mL; Cmax [2, 10]: 88.5 ± 18.3 ng/mL; Tmax [2, 10]: 0.81 ± 0.62 h; half-life [2, 10]: 7.74 ± 0.74 h; AUC(0-t) [2, 11]: 785 ± 158 ng·h/mL; Cmax [2, 11]: 113 ± 25.8 ng/mL; Tmax [2, 11]: 0.56 ± 0.27 h; half-life [2, 11]: 8.73 ± 0.98 h

Compound | Stability, Autosampler for 24 h, Accuracy [1, 3] [%] | Stability, Autosampler for 24 h, Accuracy [1, 4] [%] | Stability, Autosampler for 24 h, Accuracy [1, 5] [%] | Stability, Freeze-thaw cycles, Accuracy [1, 3] [%] | Stability, Freeze-thaw cycles, Accuracy [1, 4] [%] | Stability, Freeze-thaw cycles, Accuracy [1, 5] [%] | Stability, At −80 °C for a Month, Accuracy [1, 3] [%] | Stability, At −80 °C for a Month, Accuracy [1, 4] [%] | Stability, At −80 °C for a Month, Accuracy [1, 5] [%] | AUC(0-t) [2, 6] [ng·h/mL] | Cmax [2, 6] [ng/mL] | Tmax [2, 6] [h] | AUC(0-t) [2, 7] [ng·h/mL] | Cmax [2, 7] [ng/mL] | Tmax [2, 7] [h] | half-life [2, 7] [h] | AUC(0-t) [2, 8] [ng·h/mL] | Cmax [2, 8] [ng/mL] | Tmax [2, 8] [h] | half-life [2, 8] [h] | also measured
C[C@@]12C[C@@]3(O)O[C@@H](O1)[C@]1(COC(=O)c4ccccc4)[C@H]3C[C@@]12O[C@@H]1O[C@H](CO)[C@@H](O)[C@H](O)[C@H]1O [Compound 3, paeoniflorin] | 104.13 | 98.03 | 91.28 | 91.57 | 87.63 | 92.10 | 89.55 | 87.54 | 95.32 | – | – | – | 825 ± 96 | 82.8 ± 15.7 | 0.81 ± 0.34 | 12.6 ± 7.46 | 910 ± 476 | 101 ± 18 | 1.33 ± 0.37 | 7.9 ± 1.17 | Tmax ([2]; 12 mL/kg): 0.5 ± 0.28 h; AUC(0-t) [2, 10]: 362 ± 40.4 ng·h/mL; Cmax [2, 10]: 74.1 ± 26 ng/mL; Tmax [2, 10]: 0.31 ± 0.07 h; half-life [2, 10]: 16 ± 2.62 h; AUC(0-t) [2, 11]: 659 ± 411 ng·h/mL; Cmax [2, 11]: 150 ± 24.5 ng/mL; half-life [2, 11]: 21.4 ± 8.85 h

From PMC6272428 (Molecules, 2015)
